A short description of data set [1]: Pharmacokinetics of compounds in rats (oral). The format is in vivo, SD rats. The settings on record: male SD rats. How it is done:
Male SD rats were purchased from Shanghai SIPPR-Bk Lab Animal Co., Ltd. Each test compound was administered orally (3 rats per group) once to SD rats for pharmacokinetic study. The test compounds were prepared on the day of administration. The test compounds were suspended in 5% DMSO+95% saline, and then vortexed for 2 min and ultrasonicated for 5 min to prepare the administration system. The animals were fasted for 10-14 h before oral administration, and the feeding was resumed 4 h after administration. After oral administration by gavage, pharmacokinetic samples were collected from SD rats through the jugular vein. The collection time points were: before administration, 15 min, 30 min, 1 h, 2 h, 4 h, 6 h, 8 h and 24 h after administration. Three whole blood samples were collected at each time point, with a collection volume of about 0.2 mL, and anticoagulated with sodium heparin. After blood samples were collected, they were immediately placed on ice and centrifuged to separate plasma within 1 hour (centrifugation conditions: 6800 rpm, 6 min, 2-8° C.). The collected plasma was stored in a −80° C. refrigerator before analysis.

The test system of data set [2] is KRas G12D-mediated ERK phosphorylation. Description: Inhibition of KRas G12D-mediated ERK phosphorylation in AGS cells. It counts as cell-based. The following applies: read-out: AGS-pERK IC50. On the procedure: Day 1: AGS cells were seeded into 384-well cell culture plates and cultured overnight in a 37° C., 5% CO2 incubator.
Day 2: The compounds were added to the plates using Echo550 and incubated for 3 h in a 37° C., 5% CO2 incubator. Then cells were fixed with paraformaldehyde, permeated with methanol, and blocked with the blocking solution. Finally, a mixed solution of primary antibodies (rabbit anti pERK, mouse anti GAPDH) was added, and the mixture was incubated at 4° C. overnight.
Day 3: The mixed solution of primary antibodies was discarded, and a mixed solution of secondary antibodies (goat anti rabbit 800CW, goat anti mouse 680RD) was added. The mixture was incubated at room temperature in the dark. Finally, the cell culture plate was washed with PBST, and then inverted for 1 minute of centrifugation. The fluorescence signal values were read with Odyssey CLx.
ERK phosphorylation was calculated according to the following formula: […]
X: log value of compound concentration.
Y: average value of relative expression of p-ERK between replicate wells.

[3] abbreviates: male, SD, rat, plasma, po, 100 mg/kg, 100 mg/kg, read-out: AUC.
[4] abbreviates: male, SD, rat, plasma, po, 100 mg/kg, 100 mg/kg, read-out: Cmax.

Read-outs that look alike come from different tables or passages of the source.

A word on the AUC: it is concentration integrated over time. By Cmax is commonly meant the highest concentration seen after dosing. As a reminder, the IC50 is the concentration that gives 50% inhibition. Regarding `Oc1cc(-c2ncc3c(N4CC5CCC(C4)N5)nc(OCC45CCCN4C(c4ccc6c(c4)COCC6)CC5)nc3c2F)c2c(F)c(F)ccc2c1` (centres unmarked) [Example 187], the AUC in data set [1] (setting [3]) is 567 ng·h/mL. In addition, the peak concentration (Cmax) in data set [1] (setting [4]) was 109 ng/mL. Moreover, the IC50 in data set [2] (Homo sapiens, AGS) turned out to be 13 nM.
Turning to “4-(4-((1R,5S)-3,8-diazabicyclo[3.2.1]octan-3-yl)-8-fluoro-2-((3-(4-methoxyphenyl)tetrahydro-1H-pyrrolidin-7a(5H)-yl)methoxy)pyrido[4,3-d]pyrimidin-7-yl)-5,6-difluoronaphthalen-2-ol [Example 34]”, in data set [1] (10 mg/kg), the AUC was 75 ng·h/mL and the Cmax amounted to 25 ng/mL. In addition, the IC50 in data set [2] amounted to 27 nM.
Regarding `C#Cc1c(F)ccc2cc(O)cc(-c3ncc4c(N5CC6CCC(C5)N6)nc(OCC56CCCN5C(c5ccc(F)cc5)CC6)nc4c3F)c12` (centres unmarked) [Example 188], the exposure (AUC) in data set [1] (setting [3]) came to 862 ng·h/mL. Besides, the Cmax in data set [1] (setting [4]) was determined as 149 ng/mL. For the same compound, the IC50 in data set [2] (Homo sapiens, AGS) was determined as 5.2 nM.
The matching figures for `CC1(C)OCc2ccc(C3CCC4(COc5nc(N6CC7CCC(C6)N7)c6cnc(-c7cc(O)cc8ccc(F)c(F)c78)c(F)c6n5)CCCN34)cc21` [Example 156, 4-(4-((1R,5S)-3,8-diazabicyclo[3.2.1]octan-3-yl)-2-((3-(3,3-dimethyl-1,3-dihydroisobenzofuran-5-yl)tetrahydro-1H-pyrrolizin-7a(5H)-yl)methoxy)-8-fluoropyridin[4,3-d]pyrimidin-7-yl)-5,6-difluoronaphthalen-2-ol]: 598 ng·h/mL, 138 ng/mL and 15 nM.
In data set [1] (100 mg/kg), `Oc1cc(-c2ncc3c(N4CC5CCC(C4)N5)nc(OCC45CCCN4[C@@H](c4cc(F)c(F)c(F)c4)CC5)nc3c2F)c2c(F)c(F)ccc2c1` (mixture of isomers) [Example 222] gave a Cmax of 82 ng/mL. For the same compound, the AUC in data set [1] (setting [3]) worked out at 258 ng·h/mL. For the same compound, the concentration for half-maximal inhibition (IC50) in data set [2] (Homo sapiens, AGS) stood at 1.1 nM.
`Oc1cc(-c2ncc3c(N4CC5CCC(C4)N5)nc(OCC45CCCN4C(c4ccc(F)cc4)CC5)nc3c2F)c2c(F)c(F)ccc2c1` (centres unmarked) [Example 108]: the area under the curve (AUC) in data set [1] (setting [3]) stood at 2090 ng·h/mL. The Cmax in data set [1] (setting [4]) came out at 157 ng/mL. For the same compound, the half-inhibitory concentration (IC50) in data set [2] stood at 14 nM.
Take `CC1(C)OCc2cc(C3CCC4(COc5nc(N6C[C@H]7CC[C@@H](C6)N7)c6cnc(-c7cc(O)cc8ccc(F)c(F)c78)c(F)c6n5)CCCN34)ccc21` (stereo partly drawn) [Example 146, 4-(4-((1R,5S)-3,8-diazabicyclo[3.2.1]octan-3-yl)-2-((3-(1,1-dimethyl-1,3-dihydroisobenzofuran-5-yl)tetrahydro-1H-pyrrolizin-7a(5H)-yl)methoxy)-8-fluoropyrido[4,3-d]pyrimidin-7-yl)-5,6-difluoronaphthalen-2-ol]: the AUC in data set [1] (setting [3]) worked out at 483 ng·h/mL. Besides, the Cmax in data set [1] (setting [4]) is 143 ng/mL. Further, the IC50 in data set [2] (Homo sapiens, AGS) worked out at 11 nM.
In data set [1] (100 mg/kg), `CC1(C)OC(C)(C)c2cc(C3CCC4(COc5nc(N6C[C@H]7CC[C@@H](C6)N7)c6cnc(-c7cc(O)cc8ccccc78)c(F)c6n5)CCCN34)ccc21` (stereo partly drawn) [Example 149, 4-(4-((1R,5S)-3,8-diazabicyclo[3.2.1]octan-3-yl)-8-fluoro-2-((3-(1,1,3,3-tetramethyl-1,3-dihydroisobenzofuran-5-yl)tetrahydro-1H-pyrrolizin-7a(5H)-yl)methoxy)pyrido[4,3d]pyrimidin-7-yl)naphthalen-2-ol] returned an exposure (AUC) of 1192 ng·h/mL and a peak concentration (Cmax) of 148 ng/mL. Moreover, the half-inhibitory concentration (IC50) in data set [2] came out at 23 nM.
On the same counts, the results for `CC1(C)OC(C)(C)c2cc([C@H]3CCC4(COc5nc(N6CC7CCC(C6)N7)c6cnc(-c7cc(O)cc8ccc(F)c(F)c78)c(F)c6n5)CCCN34)ccc21` (mixture of isomers) [Example 211] are 225 ng·h/mL, 97 ng/mL and 0.96 nM.
As for `CC1(C)OC(C)(C)c2cc([C@H]3CCC4(COc5nc(N6CC7CCC(C6)N7)c6cnc(-c7cc(O)cc8ccc(F)c(F)c78)c(F)c6n5)CCCN34)ccc21` (single isomer, unassigned) [Example 198], in data set [1] (setting [3]), the area under the curve (AUC) came to 219 ng·h/mL. Further, the peak concentration (Cmax) in data set [1] (setting [4]) is 141 ng/mL. The 50% inhibitory concentration (IC50) in data set [2] (Homo sapiens, AGS) was 0.72 nM.
On the same counts, the results for `Oc1cc(-c2ncc3c(N4CC5CCC(C4)N5)nc(OCC45CCCN4C(c4ccc(Cl)c(C(F)(F)F)c4)CC5)nc3c2F)c2c(F)c(F)ccc2c1` (centres unmarked) [Example 227] are 245 ng·h/mL, 52 ng/mL and 2.4 nM.
As for `Oc1cc(-c2ncc3c(N4CC5CCC(C4)N5)nc(OCC45CCCN4[C@@H](c4ccc6c(c4)COC6)CC5)nc3c2F)c2c(F)c(F)ccc2c1` (mixture of isomers) [Example 217], the concentration for half-maximal inhibition (IC50) in data set [2] (Homo sapiens, AGS) amounted to 1.3 nM.
The same measure, in the same setting: the same measure for `Cc1ccc([C@H]2CCC3(COc4nc(N5CC6CCC(C5)N6)c5cnc(-c6cc(O)cc7ccc(F)c(F)c67)c(F)c5n4)CCCN23)cc1` (mixture of isomers) [Example 213]: 1.8 nM.
In data set [1] (100 mg/kg), `Oc1cc(-c2ncc3c(N4C[C@H]5CC[C@@H](C4)N5)nc(OCC45CCCN4C(c4ccc6c(c4)COC6)CC5)nc3c2F)c2ccccc2c1` (stereo partly drawn) [Example 43, 4-(4-((1R,5S)-3,8-diazabicyclo[3.2.1]octan-3-yl)-2-((3-(1,3-dihydroisobenzofuran-5-yl)tetrahydro-1H-pyrrolidin-7a(5H)-yl)methoxy)-8-fluoropyrido[4,3-d]pyrimidin-7-yl)naphthalen-2-ol] had an AUC of 537 ng·h/mL and a maximum concentration (Cmax) of 164 ng/mL. The half-maximal inhibitory concentration (IC50) in data set [2] amounted to 41 nM.
Regarding `COc1ccc(C2CCC3(COc4nc(N5CC6CCC(C5)N6)c5cnc(-c6cc(O)cc7ccc(F)c(F)c67)c(F)c5n4)CCCN23)cc1OC` (centres unmarked) [Example 113], the IC50 in data set [2] (Homo sapiens, AGS) was determined as 15 nM.
As for `Oc1cc(-c2ncc3c(N4CC5CCC(C4)N5)nc(OCC45CCCN4[C@@H](c4ccc(Cl)c(Cl)c4)CC5)nc3c2F)c2c(F)c(F)ccc2c1` (mixture of isomers) [Example 220], the AUC in data set [1] (setting [3]) is 140 ng·h/mL. Also, the Cmax in data set [1] (setting [4]) amounted to 38 ng/mL. Besides, the IC50 in data set [2] (Homo sapiens, AGS) is 3.2 nM.
Regarding `C#Cc1c(F)ccc2cc(O)cc(-c3ncc4c(N5CC6CCC(C5)N6)nc(OCC56CCCN5[C@@H](c5ccc(C(F)(F)F)cc5)CC6)nc4c3F)c12` (single isomer, unassigned) [Example 204], the half-inhibitory concentration (IC50) in data set [2] (Homo sapiens, AGS) turned out to be 0.78 nM.
Still for that read-out and setting: the same measure for `Oc1cc(-c2ncc3c(N4CC5CCC(C4)N5)nc(OCC45CCCN4C(c4cccc(F)c4)CC5)nc3c2F)c2c(F)c(F)ccc2c1` (centres unmarked) [Example 110]: 35 nM; for `Oc1cc(-c2ncc3c(N4CC5CCC(C4)N5)nc(OCC45CCCN4[C@@H](c4ccc(F)c(F)c4)CC5)nc3c2F)c2c(F)c(F)ccc2c1` (mixture of isomers) [Example 224]: 0.7 nM.
Same read-out and setting: the same measure for `Oc1cc(-c2ncc3c(N4CC5CCC(C4)N5)nc(OCC45CCCN4[C@@H](c4ccc(C(F)(F)F)cc4)CC5)nc3c2F)c2c(F)c(F)ccc2c1` (single isomer, unassigned) [Example 202]: 1.8 nM.
Regarding `Oc1cc(-c2ncc3c(N4C[C@H]5CC[C@@H](C4)N5)nc(OCC45CCCN4C(c4ccc6c(c4)C4CCC6O4)CC5)nc3c2F)c2c(F)c(F)ccc2c1` (stereo partly drawn) [Example 153, 4-(4-((1R,5S)-3,8-diazabicyclo[3.2.1]octan-3-yl)-8-fluoro-2-((3-(1,2,3,4-tetrahydro-1,4-epoxynaphthalen-6-yl)tetrahydro-1H-pyrrolizin-7a(5H)-yl)methoxy)pyrido[4,3d]pyrimidin-7-yl)-5,6-difluoronaphthalen-2-ol], in data set [1] (100 mg/kg), the AUC worked out at 458 ng·h/mL and the Cmax stood at 156 ng/mL. In addition, the IC50 in data set [2] came out at 5.2 nM.
For `C#Cc1c(F)ccc2cc(O)cc(-c3ncc4c(N5CC6CCC(C5)N6)nc(OCC56CCCN5[C@@H](c5ccc(F)cc5)CC6)nc4c3F)c12` (single isomer, unassigned) [Example 196], in data set [2] (Homo sapiens, AGS), the IC50 came out at 1.4 nM.

Source of the values: US20250206759A1, “FUSED RING COMPOUND, PHARMACEUTICAL COMPOSITION CONTAINING SAME, AND USE OF FUSED RING COMPOUND” (CHENGDU HYPERWAY PHARMACEUTICALS CO., LTD., priority 2022, published 2025).
